Data taken from paper PMC4460250, “Systems Pharmacology Dissecting Holistic Medicine for Treatment of Complex Diseases: An Example Using Cardiocerebrovascular Diseases Treated by TCM” (Evidence-based Complementary and Alternative Medicine : eCAM, 2015).

How the values were obtained:
[1] = in vivo; cited from earlier work
[2] = in vivo

Row | SMILES | HIA(Human Intestinal Absorption) [1] | Class(High: HIA value ≥0.7; Low: HIA value < 0.7) [2]
1 | COC(=O)C(c1ccccc1Cl)N1CCc2sccc2C1 (stereo in doubt) [Clopidogrel(R)] | 0.5 | Low (key: High: HIA value ≥0.7; Low: HIA value < 0.7)
2 | CN1C(=O)CCC1c1cccnc1 (stereo in doubt) [Cotinine(R)] | 0.97 | High (key: High: HIA value ≥0.7; Low: HIA value < 0.7)
3 | CCC(C(N)=O)N1CCCC1=O (stereo in doubt) [Levetiracetam(R)] | 1 | High (key: High: HIA value ≥0.7; Low: HIA value < 0.7)
4 | CN(Cc1cnc2nc(N)nc(N)c2n1)c1ccc(C(=O)NC(CCC(=O)O)C(=O)O)cc1 (stereo in doubt) [Methotrexate(R)] | 1 | High (key: High: HIA value ≥0.7; Low: HIA value < 0.7)
5 | CN1CCCC1c1cccnc1 (stereo in doubt) [Nicotine(R)] | 1 | High (key: High: HIA value ≥0.7; Low: HIA value < 0.7)
6 | CC(C)(C)NCC(O)COc1ccccc1C1CCCC1 (stereo in doubt) [Penbutolol(R)] | 1 | High (key: High: HIA value ≥0.7; Low: HIA value < 0.7)
7 | CCCNC1CCc2nc(N)sc2C1 (stereo in doubt) [Pramipexole(R)] | 0.8 | High (key: High: HIA value ≥0.7; Low: HIA value < 0.7)
8 | CCN1CCCC1CNC(=O)c1c(OC)ccc(Br)c1OC (stereo in doubt) [Remoxipride(R)] | 1 | High (key: High: HIA value ≥0.7; Low: HIA value < 0.7)
9 | CCOc1cc(CC(=O)NC(CC(C)C)c2ccccc2N2CCCCC2)ccc1C(=O)O (stereo in doubt) [Repaglinide(R)] | 1 | High (key: High: HIA value ≥0.7; Low: HIA value < 0.7)
10 | C#CCN(C)C(C)Cc1ccccc1 (stereo in doubt) [Selegiline(S)] | 1 | High (key: High: HIA value ≥0.7; Low: HIA value < 0.7)
11 | CC(C)(C)NCC(O)COc1nsnc1N1CCOCC1 (stereo in doubt) [Timolol(R)] | 0.95 | High (key: High: HIA value ≥0.7; Low: HIA value < 0.7)
12 | CC(=O)NCCCS(=O)(=O)O [Acamprosate] | 0.11 | Low (key: High: HIA value ≥0.7; Low: HIA value < 0.7)
13 | C[C@H]1O[C@H](O[C@H]2[C@H](O)[C@@H](O)[C@@H](O[C@H]3[C@H](O)[C@@H](O)C(O)O[C@@H]3CO)O[C@@H]2CO)[C@H](O)[C@@H](O)[C@@H]1N[C@H]1C=C(CO)[C@@H](O)[C@H](O)[C@H]1O (stereo partly drawn) [Acarbose] | 0.02 | Low (key: High: HIA value ≥0.7; Low: HIA value < 0.7)
14 | CCCC(=O)Nc1ccc(OC[C@H](O)CNC(C)C)c(C(C)=O)c1 [Acebutolol(R)] | 0.85 | High (key: High: HIA value ≥0.7; Low: HIA value < 0.7)
15 | CCCC(=O)Nc1ccc(OC[C@@H](O)CNC(C)C)c(C(C)=O)c1 [Acebutolol(S)] | 0.85 | High (key: High: HIA value ≥0.7; Low: HIA value < 0.7)
16 | CC(C)NC[C@@H](O)COc1ccc(COCCOC(C)C)cc1 [Bisoprolol(R)] |  | High (key: High: HIA value ≥0.7; Low: HIA value < 0.7)
17 | CC(C)NC[C@H](O)COc1ccc(COCCOC(C)C)cc1 [Bisoprolol(S)] |  | High (key: High: HIA value ≥0.7; Low: HIA value < 0.7)
18 | ClC(Cl)Cl [Chloroform] |  | High (key: High: HIA value ≥0.7; Low: HIA value < 0.7)
19 | CN1C(=O)CN=C(c2ccccc2)c2cc(Cl)ccc21 [Diazepam] |  | High (key: High: HIA value ≥0.7; Low: HIA value < 0.7)
20 | O=C(O)Cc1ccccc1Nc1c(Cl)cccc1Cl [Diclofenac] |  | High (key: High: HIA value ≥0.7; Low: HIA value < 0.7)

Row | SMILES | HIA(Human Intestinal Absorption) [1] | Class(High: HIA value ≥0.7; Low: HIA value < 0.7) [2]
21 | CCOc1ccc2c3c1O[C@H]1[C@@H](O)C=C[C@H]4[C@@H](C2)N(C)CC[C@@]341 [Ethylmorphine] |  | High (key: High: HIA value ≥0.7; Low: HIA value < 0.7)
22 | Cc1cnc(C(=O)NCCc2ccc(S(=O)(=O)NC(=O)NC3CCCCC3)cc2)cn1 [Glipizide] |  | High (key: High: HIA value ≥0.7; Low: HIA value < 0.7)
23 | NS(=O)(=O)c1cc2c(cc1Cl)NCNS2(=O)=O [Hydrochlorothiazide] |  | Low (key: High: HIA value ≥0.7; Low: HIA value < 0.7)
24 | C#C[C@]1(O)CC[C@H]2[C@@H]3CCC4=CC(=O)CC[C@@H]4[C@H]3CC[C@@]21CC [Levonorgestrel] |  | High (key: High: HIA value ≥0.7; Low: HIA value < 0.7)
25 | CCN(CC)CCNC(=O)c1cc(Cl)c(N)cc1OC [Metoclopramide] |  | High (key: High: HIA value ≥0.7; Low: HIA value < 0.7)
26 | Nc1cc(N2CCCCC2)nc(N)[n+]1[O-] [Minoxidil] |  | High (key: High: HIA value ≥0.7; Low: HIA value < 0.7)
27 | CN1CC[C@]23c4c5ccc(O)c4O[C@H]2[C@@H](O)C=C[C@H]3[C@H]1C5 [Morphine] |  | High (key: High: HIA value ≥0.7; Low: HIA value < 0.7)
28 | CCN(CC)CCOC(=O)C(Cc1cccc2ccccc12)CC1CCCO1 (stereo not drawn) [Nafronyl] |  | High (key: High: HIA value ≥0.7; Low: HIA value < 0.7)
29 | O=C1CN=C(c2ccccc2)c2cc(Cl)ccc2N1 [Nordazepam] |  | High (key: High: HIA value ≥0.7; Low: HIA value < 0.7)
30 | C#CC1(O)CC[C@H]2[C@@H]3CCC4=CC(=O)CC[C@@H]4[C@H]3CC[C@@]21CC (stereo partly drawn) [Norgestrel] |  | High (key: High: HIA value ≥0.7; Low: HIA value < 0.7)
31 | O=C1Nc2ccc(Cl)cc2C(c2ccccc2)=N[C@@H]1O [Oxazepam(R)] |  | High (key: High: HIA value ≥0.7; Low: HIA value < 0.7)
32 | O=C1Nc2ccc(Cl)cc2C(c2ccccc2)=N[C@H]1O [Oxazepam(S)] |  | High (key: High: HIA value ≥0.7; Low: HIA value < 0.7)
33 | C[C@]12C=CC(=O)C=C1CC[C@@H]1[C@@H]2[C@@H](O)C[C@@]2(C)[C@H]1CC[C@]2(O)C(=O)CO [Prednisolone] |  | High (key: High: HIA value ≥0.7; Low: HIA value < 0.7)
34 | CCCc1cc(=O)[nH]c(=S)[nH]1 [Propylthiouracil] |  | High (key: High: HIA value ≥0.7; Low: HIA value < 0.7)
35 | O=C(O)c1ccccc1O [Salicylic acid] |  | High (key: High: HIA value ≥0.7; Low: HIA value < 0.7)
36 | Cc1cc(NS(=O)(=O)c2ccc(N)cc2)no1 [Sulfamethoxazole] |  | High (key: High: HIA value ≥0.7; Low: HIA value < 0.7)
37 | CN1C(=O)[C@@H](O)N=C(c2ccccc2)c2cc(Cl)ccc21 [Temazepam(R)] |  | High (key: High: HIA value ≥0.7; Low: HIA value < 0.7)
38 | CN1C(=O)[C@H](O)N=C(c2ccccc2)c2cc(Cl)ccc21 [Temazepam(S)] |  | High (key: High: HIA value ≥0.7; Low: HIA value < 0.7)
39 | Clc1ccccc1CN1CCc2sccc2C1 [Ticlopidine] | 0.8 | 
40 | O=P(O)(O)C(Sc1ccc(Cl)cc1)P(=O)(O)O [Tiludronic_acid] | 0.06 | 

Row | SMILES | HIA(Human Intestinal Absorption) [1] | Class(High: HIA value ≥0.7; Low: HIA value < 0.7) [2]
41 | NC[C@H]1O[C@H](O[C@H]2[C@H](O)[C@@H](O[C@H]3O[C@H](CO)[C@@H](O)[C@H](N)[C@H]3O)[C@H](N)C[C@@H]2N)[C@H](N)C[C@@H]1O [Tobramycin] | 0.01 | 
42 | Cc1ccc(C(=O)c2ccc(CC(=O)O)n2C)cc1 [Tolmetin] | 0.99 | 
43 | Cc1ccc(O)c([C@H](CCN(C(C)C)C(C)C)c2ccccc2)c1 [Tolterodine] | 0.77 | 
44 | CC1(C)O[C@@H]2[C@@H](CO[C@@]3(COS(N)(=O)=O)OC(C)(C)O[C@@H]23)O1 [Topiramate] | 0.86 | 
45 | Cc1cccc(Nc2ccncc2S(=O)(=O)NC(=O)NC(C)C)c1 [Torasemide] | 0.96 | 
46 | CN(C)CCOc1ccc(/C(=C(/CCCl)c2ccccc2)c2ccccc2)cc1 [Toremifene] | 1 | 
47 | NC[C@H]1CC[C@H](C(=O)O)CC1 [Tranexamic_acid] | 0.55 | 
48 | C[C@]12C=CC(=O)C=C1CC[C@H]1[C@@H]3C[C@@H](O)[C@](O)(C(=O)CO)[C@@]3(C)C[C@H](O)[C@@]12F [Triamcinolone] | 1 | 
49 | Cc1nnc2n1-c1ccc(Cl)cc1C(c1ccccc1Cl)=NC2 [Triazolam] |  | High (key: High: HIA value ≥0.7; Low: HIA value < 0.7)
50 | COc1cc(Cc2cnc(N)nc2N)cc(OC)c1OC [Trimethoprim] | 0.97 | 
51 | COc1ccccc1N1CCN(CCCNc2cc(=O)n(C)c(=O)n2C)CC1 [Urapidil] | 0.78 | 
52 | CCCC(CCC)C(=O)O [Valproic_acid] | 0.98 | 
53 | C=CC(N)CCC(=O)O (stereo not drawn) [Vigabatrin] | 0.58 | 
54 | CC1=C(/C=C/C(C)=C/C=C/C(C)=C/CO)C(C)(C)CCC1 [Vitamin_A] | 0.8 | 
55 | Nc1ccn([C@H]2CC[C@@H](CO)O2)c(=O)n1 [Zalcitabine] | 0.85 | 
56 | CC(=O)N[C@H]1[C@H]([C@H](O)[C@H](O)CO)OC(C(=O)O)=C[C@@H]1N=C(N)N [Zanamivir] | 0.02 | 
57 | Cc1cn([C@H]2C[C@H](N=[N+]=[N-])[C@@H](CO)O2)c(=O)[nH]c1=O [Zidovudine] | 1 | 
58 | O=C1Cc2cc(CCN3CCN(c4nsc5ccccc45)CC3)c(Cl)cc2N1 [Ziprasidone] | 0.6 | 
59 | Cc1cc(CC(=O)O)n(C)c1C(=O)c1ccc(Cl)cc1 [Zomepirac] | 1 | 
60 | NS(=O)(=O)Cc1noc2ccccc12 [Zonisamide] | 1 | 
